Data reported in US20090327175A1, “PHARMACOKINETIC MODELING OF MYCOPHENOLIC ACID” (priority 2006, published 2009).
Read-outs that look alike come from different tables or passages of the source.

How the values were obtained:
[1] = 12 h plasma concentration/time profiles from six clinical studies of transplant patients receiving enteric coated mycophenolate salt (Myfortic); type: in vivo, human; conditions: for AUC(0-t): human, plasma, oral, enteric coated mycophenolate salt (Myfortic), read-out: MPA AUC0-12, mean and SD, measured
Experimental: 334, 12 h plasma concentration/time profiles (217 for de novo and 117 for stable patients) are available from six clinical studies of transplant patients receiving enteric coated composition containing mycophenolate salt (Myfortic®) as part of their immunosuppressive drug regimen. Using 20 randomly selected profiles, population PK models (two-compartment for stable patients and a one-compartment for de novo patients) are developed using a Bayesian approach (i.e. approach to statistics in which estimates are based on a synthesis of a prior distribution and current sample data) to estimate the model parameters. The remaining profiles are used to test and validate the models.

[2] = immediately post-transplantation; cited from earlier work

In the case of `COc1c(C)c2c(c(O)c1C/C=C(\C)CCC(=O)O)C(=O)OC2` [MPA, mycophenolic acid], the “share of de novo patients below lower end of target range for MPA AUC0-12 (30 mg/L·h)” value ([1]; fixed dose of 720 mg bid, during the two weeks after transplantation) is reported as 50%, the AUC(0-t) ([1]; 720 mg bid, de novo patients transplanted within the previous two weeks) is reported as 32200 ± 17500 ng·h/mL and the AUC(0-t) ([1]; stable patients) is reported as 65100 ± 26000 ng·h/mL. For the same compound, the “optimal target MPA AUC0-12 suggested by previous controlled studies” value [2] was roughly 45 mg·h/L.
